Results taken from patent publication US20220033434A1, “ANDROGEN RECEPTOR NUCLEIC ACIDS AND USES THEREOF” (Avidity Biosciences, Inc., priority 2016, published 2022).
In the oligonucleotide strings, read from the 5' end, every base follows the letter of its sugar. An asterisk marks phosphorothioate; unmarked linkages are phosphodiester. Other units and linkages are bracketed, terminal groups are in braces. A string of capitals states the bases alone. d = 2'-deoxy (DNA); m = 2'-O-methyl; f = 2'-fluoro

Key:
Format in all cases: cell-based, human
AR mRNA [1] = experiment: AR mRNA IC50 and maximal KD, siRNA at various concentrations, C4-2 cells, qPCR probes exon junctions 1/2 or 4/5
Protocol: (§1) Focusing on siRNAs targeting AR sequences exons 1 and 2, the ability of these siRNAs to downregulate AR mRNA at a concentration of 5 nM was determined by RT-qPCR. For this purpose, siRNAs were transfected into 22RV1 and LNCaP cells as described above. At 24 hrs post-transfection, RNA was harvested from cells using a Qiagen RNeasy® Plus Mini Kit or Stratec InviTrap® RNA Cell HTS96 kit. The concentration of each isolated RNA was determined via A260 measurement using a NanoDrop spectrophotometer. RNA samples were reverse transcribed to cDNA using the High Capacity RNA to cDNA Kit (Life Technologies) according to the manufacturer's instructions. cDNA samples were then quantified by qPCR using AR-specific probes and results normalized to either endogenous β-actin or PPIB using the standard 2^−ΔΔCt method. These studies identified 6 siRNAs that at a concentration of 5 nM down regulated AR mRNA in 22RV1 and LNCaP cells by more than 80% compared to controls (Table 4).
(§2) To determine the concentration required to reduce AR expression by 50% (IC50) and maximal KD activity, these siRNAs were transfected into LNCaP, C4-2, and 22RV1 cells at various concentrations starting at 100 nM. C4-2 (MD Anderson) is an LNCaP subline that has been selected for resistance against clinically used AR antagonists (Wu et al., “Derivation of androgen-independent human LNCaP prostatic cancer cell sublines: Role of bone stromal cells,” International J Cancer 1994; 57:406-412). Cells were harvested 48 h post-transfection; RNA was prepared and analyzed as stated above. For these experiments, specific AR qPCR probes located at the exon junctions 1/2 or 4/5 were used that recognize most mRNAs of relevant AR isoforms or primarily full length AR mRNA, respectively. All tested siRNAs lowered AR expression with subnanomolar potency to 70% in 22RV1 cells and to ≥90% in LNCaP and C4-2 cells (Table 5). […]

[2] = test system: AR FL (full length AR T877A LBD mutant); experiment: AR protein knock-down by Western blot after siRNA transfection in LNCaP cells: AR FL; details: 5 nM siRNA, 72 h post transfection, compared to controls
Summary of the method: (§3)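 Each siRNA was tested at a single 5 nM final concentration in 22RV1 and LNCaP prostate cancer cells. After transfection, lysis followed at 50 h and 72 h respectively; AR protein was measured by quantitative fluorescent Western blot against α-tubulin.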

AR mRNA [3] = experiment: AR mRNA downregulation by RT-qPCR at 5 nM siRNA in LNCaP cells; details: 24 hrs post-transfection
Protocol: as §1

AR mRNA [4] = experiment: AR mRNA IC50 and maximal KD, siRNA at various concentrations, LNCaP cells, qPCR probes exon junctions 1/2 or 4/5
Protocol: as §1, §2

AR mRNA [5] = experiment: AR mRNA downregulation by RT-qPCR at 5 nM siRNA in 22RV1 cells; details: 24 hrs post-transfection
Protocol: as §1

AR mRNA [6] = experiment: AR mRNA IC50 and maximal KD, siRNA at various concentrations, 22RV1 cells, qPCR probes exon junctions 1/2 or 4/5
Protocol: as §1, §2

AR-SV(3) = experiment: AR protein knock-down by Western blot after siRNA transfection in 22RV1 cells: AR-SV(3); details: 5 nM siRNA, 50 h post transfection, compared to controls
Summary of the method: as §3

AR-SV(2) = experiment: AR protein knock-down by Western blot after siRNA transfection in 22RV1 cells: AR-SV(2); details: 5 nM siRNA, 50 h post transfection, compared to controls
Summary of the method: as §3

AR FL(1) = experiment: AR protein knock-down by Western blot after siRNA transfection in 22RV1 cells: AR FL(1); details: 5 nM siRNA, 50 h post transfection, compared to controls
Summary of the method: as §3

[7] = test system: AR target gene expression (PSA, PSMA); experiment: AR, PSA and PSMA levels by qRT-PCR in hormone therapy resistant 22RV1 cells, siRNA versus Enzalutamide; details: 5 nM siRNA (24 h + 20 h DMSO) or 10 μM Enzalutamide 20 hours
Source text: (§4) To monitor regulation of AR target genes as a consequence of siRNA-mediated changes in AR […], LNCaP cells were transfected with various concentrations of XD-01829 (also referred to as XD-0189), and the levels of AR and the Prostate Specific Antigen (PSA) monitored by qRT-PCR. PSA expression is positively regulated by AR and used clinically as a biomarker for AR activity in prostate cancer patients. […] A similar experiment compared the expression of AR, PSA and the Prostate-Specific Membrane Antigen (PSMA) in response to treatment with the AR antagonist Enzalutamide or AR siRNA XD-01829 (or XD-0189). PSMA expression is negatively regulated by AR. For these experiments, hormone therapy resistant 22RV1 cells were transfected with 5 nM of either a scrambled control siRNA (negative control, Enzalutamide group) or XD-01829 (or XD-0189) as described above. After incubation for 24 hours, the negative control and XD-01829 (or XD-0189) groups were treated with DMSO, and the enzalutamide group with 10 μM Enzalutamide. After incubation for 20 hours RNAs were prepared as outlined above and AR, PSA, and PSMA levels evaluated by qRT-PCR.

[8] = test system: Prostate Specific Antigen (PSA); experiment: AR and PSA levels by qRT-PCR after siRNA transfection in LNCaP cells; details: various concentrations, 3 days after transfection
Source text: as §4

[9] = AR qPCR probe at exon junction 1/2, 48 h post-transfection
[10] = AR qPCR probe at exon junction 1/2, 48 h post-transfection, read-out: IC50 (nM), C4-2, Exon 1/2
[11] = AR qPCR probe at exon junction 4/5, 48 h post-transfection
[12] = AR qPCR probe at exon junction 4/5, 48 h post-transfection, read-out: IC50 (nM), C4-2, Exon 4/5
[13] = AR qPCR probe at exon junction 1/2, 48 h post-transfection, read-out: IC50 (nM), LNCaP, Exon 1/2
[14] = AR qPCR probe at exon junction 4/5, 48 h post-transfection, read-out: IC50 (nM), LNCaP, Exon 4/5
[15] = AR qPCR probe at exon junction 1/2, 48 h post-transfection, read-out: IC50 (nM), 22RV1, Exon 1/2
[16] = AR qPCR probe at exon junction 4/5, 48 h post-transfection, read-out: IC50 (nM), 22RV1, Exon 4/5

Substance	max KD (%), C4-2, Exon 1/2 (AR mRNA [1]; [9]) [%]	IC50 (AR mRNA [1]; [10]) [nM]	max KD (%), C4-2, Exon 4/5 (AR mRNA [1]; [11]) [%]	IC50 (AR mRNA [1]; [12]) [nM]	% KD AR Protein LNCaP AR FL [2] [%]	% KD AR RNA LNCaP (AR mRNA [3]) [%]	max KD (%), LNCaP, Exon 1/2 (AR mRNA [4]; [9]) [%]	IC50 (AR mRNA [4]; [13]) [nM]	max KD (%), LNCaP, Exon 4/5 (AR mRNA [4]; [11]) [%]	IC50 (AR mRNA [4]; [14]) [nM]	% KD AR RNA 22RV1 (AR mRNA [5]) [%]	max KD (%), 22RV1, Exon 1/2 (AR mRNA [6]; [9]) [%]	IC50 (AR mRNA [6]; [15]) [nM]	max KD (%), 22RV1, Exon 4/5 (AR mRNA [6]; [11]) [%]	IC50 (AR mRNA [6]; [16]) [nM]	% KD AR Protein 22RV1 AR-SV(3) (AR-SV(3)) [%]	% KD AR Protein 22RV1 AR-SV(2) (AR-SV(2)) [%]	% KD AR Protein 22RV1 AR FL(1) (AR FL(1)) [%]	regulation of AR target gene expression (PSA, PSMA) [7]	AR and PSA levels [8]
XD-01817: AR siRNA with chemical modification, Id # 1987; sense X05329 (SEQ ID NO: 159), antisense X05330 (SEQ ID NO: 160) (sense mAmAfGmGfUmUfCmUfCmUfGmCfUmAfGmAfCmGfAdT*dT; antisense fUfCmGfUmCfUmAfGmCfAmGfAmGfAmAfCmCfUmUdT*dT)	83.6	0.021	84.1	0.023	99	87	83.4	0.018	87.2	0.017	83	49.3	0.059	61.1	0.043	86	91	83	–	–
XD-01825: AR siRNA with chemical modification, Id # 2814; sense X05345 (SEQ ID NO: 175), antisense X05346 (SEQ ID NO: 176) (sense mGmCfUmUfCmUfGmGfGmUfGmUfCmAfCmUfAmUfGdT*dT; antisense fCfAmUfAmGfUmGfAmCfAmCfCmCfAmGfAmAfGmCdT*dT)	83.5	0.024	84.6	0.026	91	82	82.5	0.02	84.9	0.018	91	53.5	0.067	60.7	0.055	95	93	90	–	–
XD-01826: AR siRNA with chemical modification, Id # 2817; sense X05347 (SEQ ID NO: 177), antisense X05348 (SEQ ID NO: 178) (sense mUmCfUmGfGmGfUmGfUmCfAmCfUmAfUmGfGmAfGdT*dT; antisense fCfUmCfCmAfUmAfGmUfGmAfCmAfCmCfCmAfGmAdT*dT)	86.5	0.049	87.0	0.046	91	81	84.6	0.041	86.0	0.035	89	52.4	0.146	64.8	0.057	93	92	87	–	–
XD-01827: AR siRNA with chemical modification, Id # 2819; sense X05349 (SEQ ID NO: 179), antisense X05350 (SEQ ID NO: 180) (sense mUmGfGmGfUmGfUmCfAmCfUmAfUmGfGmAfGmCfUdT*dT; antisense fAfGmCfUmCfCmAfUmAfGmUfGmAfCmAfCmCfCmAdT*dT)	83.2	0.052	85.7	0.052	90	86	81.7	0.053	84.5	0.06	89	38.7	0.108	54.0	0.068	93	92	89	–	–
XD-01828: AR siRNA with chemical modification, Id # 2820; sense X05351 (SEQ ID NO: 181), antisense X05352 (SEQ ID NO: 182) (sense mGmGfGmUfGmUfCmAfCmUfAmUfGmGfAmGfCmUfCdT*dT; antisense fGfAmGfCmUfCmCfAmUfAmGfUmGfAmCfAmCfCmCdT*dT)	81.1	0.022	77.7	0.02	90	84	84.8	0.023	81.7	0.028	96	51.7	0.042	50.7	0.028	92	89	80	–	–
XD-01829: AR siRNA with chemical modification, Id # 2822; sense X05353 (SEQ ID NO: 183), antisense X05354 (SEQ ID NO: 184) (sense mGmUfGmUfCmAfCmUfAmUfGmGfAmGfCmUfCmUfCdT*dT; antisense fGfAmGfAmGfCmUfCmCfAmUfAmGfUmGfAmCfAmCdT*dT)	94.7	0.013	92.6	0.011	91	92	94.2	0.016	92.3	0.016	86	72.1	0.038	68.1	0.018	97	99	97	regulate AR target gene expression	highly correlated
